1 compound from patent publication US10745355B2, “Anti-cancer compounds” (THE UNIVERSITY OF SYDNEY, priority 2015, dated 2020) can be followed below.

In assay [1] the target is SRC (Homo sapiens, UniProt P12931). The assay can be described thus: Kinase profiling (ProQinase 33PanQinase Activity Assay), SRC. The assay is classed as biochemical. Particulars: read-out: residual activity, SRC. On the procedure:
(§1) The kinase profiling of compound 1-08 at 10 and 50 μM was performed by ProQinase GmbH (Freiburg, Germany). A radiometric protein kinase assay (^33PanQinase® Activity Assay) and the non-radiometric ADP-Glo™ Assay (Promega, Madison, Wis., USA) were used for measuring kinase activity of 387 protein kinases and 13 lipid kinases, respectively. The results are shown in Table 3 (only the top 10 kinases are listed, and the selectivity score describes the portion of kinases inhibited more than 50% in relation to all tested kinases).

In assay [2] the test system is U87. The assay can be described thus: Annexin-FITC/7-AAD apoptosis assay, U87 cells. Particulars: 48 hours treatment. The assay is classed as cell-based. The procedure: FIGS. 4A-4D. […] U87 (4A-4B) and U87vIII (4C-4D) cells were treated with SC-38 for 48 hours and stained with Annexin-FITC/7-AAD. Apoptotic cells were visualized using the MUSE cell analyzer (Millipore).
FIGS. 6A-6D. […] U87 (A B) (6A-6B) and U87vIII (6C-6D) cells were treated with compound 1-08 for 48 hours and stained with Annexin-FITC/7-AAD. Apoptotic cells were visualized using the MUSE cell analyzer (Millipore). Results are means±SEM from 3 independent experiments. One-way ANOVA followed by Dunnet post-test was used to calculate statistical significance (***P<0.001).
U87 (FIGS. 4, A-B) and U87vIII (FIG. 4, C-D) cells were treated with SC-38 for 48 hours and stained with Annexin-FITC/7-AAD. Apoptotic cells were visualized using the MUSE cell analyzer (Millipore). Results are means±SEM from 3 independent experiments. One-way ANOVA followed by Dunnet post-test was used to calculate statistical significance (**P<0.01, ***P<0.001)
U87 (FIGS. 6, A-B) and U87vIII (FIG. 6, C-D) cells were treated with compound 1-08 for 48 hours and stained with Annexin-FITC/7-AAD. Apoptotic cells were visualized using the MUSE cell analyzer (Millipore). Results are means±SEM from three independent experiments. One-way ANOVA followed by Dunnet post-test was used to calculate statistical significance (***P<0.001).

Assay [3] has as its target T1, MERTK (Homo sapiens, UniProt Q12866).
T1 sequence (Q12866 21-999): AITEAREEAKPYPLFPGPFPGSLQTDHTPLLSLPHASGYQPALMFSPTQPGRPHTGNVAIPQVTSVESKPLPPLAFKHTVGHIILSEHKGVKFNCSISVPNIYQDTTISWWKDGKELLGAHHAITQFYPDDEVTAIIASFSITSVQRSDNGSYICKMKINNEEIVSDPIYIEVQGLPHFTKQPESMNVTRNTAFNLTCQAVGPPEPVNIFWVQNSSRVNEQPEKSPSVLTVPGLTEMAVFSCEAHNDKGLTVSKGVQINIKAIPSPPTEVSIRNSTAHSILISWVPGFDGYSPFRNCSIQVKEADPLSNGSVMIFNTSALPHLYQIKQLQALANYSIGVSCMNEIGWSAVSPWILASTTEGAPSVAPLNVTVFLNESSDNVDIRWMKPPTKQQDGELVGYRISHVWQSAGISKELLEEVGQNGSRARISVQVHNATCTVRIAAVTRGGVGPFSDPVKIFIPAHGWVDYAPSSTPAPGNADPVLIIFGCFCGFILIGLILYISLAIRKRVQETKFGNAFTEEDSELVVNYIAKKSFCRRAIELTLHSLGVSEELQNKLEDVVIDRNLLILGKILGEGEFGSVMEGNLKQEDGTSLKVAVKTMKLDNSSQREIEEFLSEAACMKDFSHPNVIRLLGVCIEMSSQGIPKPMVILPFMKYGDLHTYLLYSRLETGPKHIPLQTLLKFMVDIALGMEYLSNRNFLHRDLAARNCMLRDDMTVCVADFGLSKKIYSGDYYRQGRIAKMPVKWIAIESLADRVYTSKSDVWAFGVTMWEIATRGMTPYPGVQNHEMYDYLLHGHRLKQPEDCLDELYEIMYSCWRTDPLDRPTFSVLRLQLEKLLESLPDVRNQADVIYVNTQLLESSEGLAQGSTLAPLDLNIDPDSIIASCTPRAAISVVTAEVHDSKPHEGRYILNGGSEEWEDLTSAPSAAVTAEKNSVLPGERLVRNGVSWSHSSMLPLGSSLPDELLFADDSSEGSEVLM
The assay can be described thus: Kinase profiling (ProQinase 33PanQinase Activity Assay), MERTK (table: MERK). The assay is classed as biochemical. On the procedure: as §1
At 10 μM, compound 1-08 inhibited MERTK at the 51% level. Several other kinases were inhibited at 50 μM concentration.

Assay [4] relates to U87vIII. In words: Alamar blue cell viability assay, U87vIII cells. The assay is classed as cell-based. Particulars: 72 hours of treatment; mean±SEM, three independent experiments. The procedure:
U87 and U251 cell lines were obtained from the European Collection of Cell Cultures (ECACC) through CellBank Australia. U87-EGFRvIII cell line was obtained from their lab of origin (Nishikawa et al., 1994, Proc Natl Acad Sci USA 91: 7727-7731) and tested for EGFR amplification and mutation by immunoblotting and flow cytometry. Cells were cultured in DMEM medium (Invitrogen by Life Technologies, Carlsbad, Calif., USA) supplemented with 10% FBS (Sigma-Aldrich) at 37° C. and 5% CO2. Primary gliomaspheres (RN1, classical; WK1, mesenchymal) were derived from glioblastoma specimens (Day et al., 2013, Cancers 5: 357-371; Day et al., 2013, Cancer Cell 23: 238-248), maintained in StemPro NSC serum-free media supplemented with EGF and FGF (all Life Technologies), and grown on matrigel-coated flasks (Pollard et al., 2009, Cell Stem Cell 4: 568-580).
Cell viability was determined using Alamar blue assay after 72 hours of treatment (Table 2). EC50 values were calculated using non-linear regression on Graph Pad Prism version 5. c Log P values calculated using ChemBioDraw Software. Results are mean±SEM from three independent experiments performed in triplicates.
Background: The colour change of resazurin is a common sign of viable cells or microbes.

Molecules are shown by their SMILES.

SRC, sequence (P12931 whole entry): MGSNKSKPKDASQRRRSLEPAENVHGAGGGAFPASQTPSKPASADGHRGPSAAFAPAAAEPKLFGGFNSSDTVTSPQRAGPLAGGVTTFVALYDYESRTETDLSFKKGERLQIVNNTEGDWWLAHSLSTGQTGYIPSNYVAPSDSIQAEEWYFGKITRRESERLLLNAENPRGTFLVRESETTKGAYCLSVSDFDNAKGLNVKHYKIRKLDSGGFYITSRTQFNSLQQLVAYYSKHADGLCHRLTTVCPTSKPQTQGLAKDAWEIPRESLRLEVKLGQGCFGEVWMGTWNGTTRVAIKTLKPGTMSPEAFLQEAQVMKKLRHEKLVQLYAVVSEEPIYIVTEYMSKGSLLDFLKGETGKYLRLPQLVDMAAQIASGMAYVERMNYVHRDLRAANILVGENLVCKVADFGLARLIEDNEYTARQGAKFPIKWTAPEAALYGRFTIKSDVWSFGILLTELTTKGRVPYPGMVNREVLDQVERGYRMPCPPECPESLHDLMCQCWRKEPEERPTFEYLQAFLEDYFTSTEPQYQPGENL

Consider `O=C(CCCc1ccc(-c2cnc3ccccc3c2)cc1)Nc1ccc(O)cc1` [Compound 1-08, N-(4-hydroxyphenyl)-4-(4-(quinolin-3-yl)phenyl)butanamide], for which the remaining activity at 10 µM in assay [1] (10 μM compound) was 57%; in assay [3] (10 μM compound, read-out: residual activity, MERK), 49%. The remaining activity at 50 µM in assay [1] (50 μM compound) stood at 21%; in assay [3] (50 μM compound, read-out: residual activity, MERK), 12%. Further, the “apoptosis, U87” value in assay [2] is “induced apoptosis”. In assay [3] (10 μM compound), the inhibition (usually the relative decrease from the control value, in per cent) at 10 µM amounted to 51%. Moreover, the concentration giving a half-maximal response (EC50) – broadly, the concentration needed to bring the measured effect to its halfway point – in assay [4] is 1300 ± 400 nM.
